The test system of data set [1] is local skin toxicity/irritancy.
The target of data set [2] is T1, hNav1.7 (Homo sapiens, UniProt Q15858). As to the kind of experiment: cell-based.
Data set [3] in a line: Phase 1 clinical trial of topical ointment: systemic pharmacokinetics. It counts as in vivo, human.
The subject of data set [4] is histamine-induced pruritis. Description: Histamine-induced pruritis in vivo assay. Set-up: species or system male ICR mice. The following applies: scored over 40 minutes. The method, then: Histamine induces pruritis (itching) in humans. Accordingly, this assay evaluates the efficacy of topically and orally administered (S)-enantiomer of the invention on histamine-induced pruritis in male ICR mice. […] One day prior to testing, the scapular regions on the animals were shaved with hair clippers. On the testing day, the animals were habituated for 60 minutes in the test chamber comprising of a clear plastic tube placed vertically on a flat surface. After the habituation period, the animals were removed from the plastic tube, placed in a restrainer, and injected with histamine at the shaved scapular region. The injections were made intradermally into the skin in small injection volumes (10 μL) using a Hamilton syringe. […] Immediately after the injections, the animals were returned to the test chambers and observed by cameras placed above the test chambers for a total of 50 minutes. The cameras were connected to a computer where digital video files were created, saved, and analyzed. The number of itching bouts was scored over 40 minutes. An “itching bout” was defined as the lifting of a hind leg, using it to scratch the scapular region, and then placing it back on the ground. […] The data were analyzed using GraphPad Prism 5 statistical analysis software and an unpaired t-test was used for univariate analysis. Results are expressed as mean±SEM. […]

Data set [5] deals with chronic constriction injury neuropathic pain. As to the kind of experiment: Neuropathic pain model; chronic constriction injury (CCI). Format: in vivo. Conditions: topical ointment containing 2% (w/v).
Data set [6] concerns CFA induced chronic inflammatory pain. As to the kind of experiment: CFA induced chronic inflammatory pain, von Frey tactile allodynia. Conditions: for % Increase From Base Line, 8% topical: 8% (w/v) topical. It counts as in vivo, rats. On the procedure: In this test, tactile allodynia is assessed with calibrated von Frey filaments. […] Animals were allowed to recover from the anaesthesia and the baseline thermal and mechanical nociceptive thresholds of all animals were assessed one week after the administration of CFA. All animals were habituated to the experimental equipment for 20 minutes on the day prior to the start of the experiment. The test and control articles were administrated to the animals, and the nociceptive thresholds were measured at defined time points after drug administration to determine the analgesic responses to each of the six available treatments. The time points used were previously determined to show the highest analgesic effect for each test compound. […] Each enantiomer was dosed at 10, 30, 100 or 200 mg/Kg. The plasma concentration achieved with each dose was also determined and the reversal of pain response (as the % increase from baseline threshold) is plotted as a function of plasma concentration. The (S)-enantiomer of the invention was also administered topically to the animals in varying dosages (1%, 2%, 4% and 8% (w/v)) and the nociceptive thresholds measured at defined time points after drug administration to determine the analgesic responses to each of the available treatments. The time points used were previously determined to show the highest analgesic effect for each test compound. The response thresholds of the animals to tactile stimuli were measured using the Model 2290 Electrovonfrey anesthesiometer (IITC Life Science, Woodland Hills, Calif.) following the Hargreaves test. The animals were placed in an elevated Plexiglas enclosure set on a wire mesh surface. After 15 minutes of accommodation, a pre-calibrated Von Frey hair was applied perpendicularly to the plantar of the ipsilateral hind paws of the animals, with sufficient force, measured in grams, to elicit a crisp response of the paw. The response indicated a withdrawal from the painful stimulus and constituted the efficacy endpoint. […] This cut off force is used because it represent approximately 10% of the animals' body weight and it serves to prevent raising of the entire limb due to the use of stiffer hairs, which would change the nature of the stimulus. The data were expressed as percent increase from baseline threshold measured in grams.

Data set [7] deals with T1, hNav1.7. Conditions: (S)- versus (R)-enantiomer.
Setting [8] is: von Frey mechanical paw withdrawal threshold.
Where [9] appears, read: von Frey mechanical paw withdrawal threshold, listed as (S)-enantiomer.

One may read the IC50 as the concentration at which inhibition is half-maximal. A higher IC50 goes with lower potency.

T1 sequence (Q15858 whole entry): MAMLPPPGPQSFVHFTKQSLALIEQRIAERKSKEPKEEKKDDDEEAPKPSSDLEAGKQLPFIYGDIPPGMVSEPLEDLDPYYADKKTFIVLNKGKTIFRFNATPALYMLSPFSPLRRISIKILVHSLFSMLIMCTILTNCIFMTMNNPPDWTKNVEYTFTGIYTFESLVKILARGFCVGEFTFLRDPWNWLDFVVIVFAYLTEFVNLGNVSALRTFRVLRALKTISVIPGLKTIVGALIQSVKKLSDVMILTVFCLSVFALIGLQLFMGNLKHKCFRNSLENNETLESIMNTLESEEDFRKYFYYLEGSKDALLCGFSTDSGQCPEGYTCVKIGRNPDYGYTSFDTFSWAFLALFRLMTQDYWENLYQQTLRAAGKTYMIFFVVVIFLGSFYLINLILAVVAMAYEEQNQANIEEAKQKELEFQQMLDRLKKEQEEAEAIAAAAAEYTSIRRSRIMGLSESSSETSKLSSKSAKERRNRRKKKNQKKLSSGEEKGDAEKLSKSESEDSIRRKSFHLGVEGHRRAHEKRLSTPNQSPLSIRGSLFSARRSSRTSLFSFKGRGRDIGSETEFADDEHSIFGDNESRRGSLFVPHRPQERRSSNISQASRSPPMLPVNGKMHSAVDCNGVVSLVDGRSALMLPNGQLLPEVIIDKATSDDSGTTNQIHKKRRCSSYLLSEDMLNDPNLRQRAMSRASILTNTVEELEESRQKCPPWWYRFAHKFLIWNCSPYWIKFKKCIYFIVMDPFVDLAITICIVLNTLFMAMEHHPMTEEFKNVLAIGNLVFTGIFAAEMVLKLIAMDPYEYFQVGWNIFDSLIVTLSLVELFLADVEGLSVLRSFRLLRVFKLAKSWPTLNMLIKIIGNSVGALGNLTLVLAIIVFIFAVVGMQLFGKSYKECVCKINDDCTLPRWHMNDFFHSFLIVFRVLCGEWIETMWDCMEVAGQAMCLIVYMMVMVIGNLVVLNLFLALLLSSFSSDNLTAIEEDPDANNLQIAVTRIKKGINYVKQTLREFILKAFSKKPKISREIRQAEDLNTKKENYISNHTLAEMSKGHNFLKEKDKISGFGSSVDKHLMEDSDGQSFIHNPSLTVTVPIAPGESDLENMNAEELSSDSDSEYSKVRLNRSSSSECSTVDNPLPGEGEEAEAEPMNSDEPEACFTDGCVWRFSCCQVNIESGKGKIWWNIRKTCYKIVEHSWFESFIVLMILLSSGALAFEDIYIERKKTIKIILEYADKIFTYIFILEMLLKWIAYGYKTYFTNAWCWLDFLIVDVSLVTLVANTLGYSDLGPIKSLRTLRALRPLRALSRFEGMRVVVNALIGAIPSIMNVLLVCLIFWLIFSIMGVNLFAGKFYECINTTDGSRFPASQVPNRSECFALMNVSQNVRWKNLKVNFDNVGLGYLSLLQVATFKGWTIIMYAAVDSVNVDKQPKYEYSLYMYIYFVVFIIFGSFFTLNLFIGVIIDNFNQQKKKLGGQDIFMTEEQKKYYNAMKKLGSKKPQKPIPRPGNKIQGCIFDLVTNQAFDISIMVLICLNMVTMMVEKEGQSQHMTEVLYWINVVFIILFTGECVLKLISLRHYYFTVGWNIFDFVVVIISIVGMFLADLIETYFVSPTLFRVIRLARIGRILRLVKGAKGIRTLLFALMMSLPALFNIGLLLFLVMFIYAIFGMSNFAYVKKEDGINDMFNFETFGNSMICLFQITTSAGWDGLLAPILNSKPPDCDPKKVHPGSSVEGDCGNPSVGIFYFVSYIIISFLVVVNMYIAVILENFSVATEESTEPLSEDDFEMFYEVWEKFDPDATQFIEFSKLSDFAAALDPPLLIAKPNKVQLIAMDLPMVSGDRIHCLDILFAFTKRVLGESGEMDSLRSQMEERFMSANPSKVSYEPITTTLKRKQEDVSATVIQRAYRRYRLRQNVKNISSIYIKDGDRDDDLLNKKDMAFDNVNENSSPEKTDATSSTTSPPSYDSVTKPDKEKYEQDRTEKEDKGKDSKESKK

`O=C1N(Cc2ccc(C(F)(F)F)o2)c2ccccc2[C@]12COc1cc3c(cc12)OCO3` [(I-S), (S)-1′-{[5-(trifluoromethyl)furan-2-yl]methyl}spiro[furo[2,3-f][1,3]benzodioxole-7,3′-indol]-2′(1′H)-one]: in data set [1] (4% and 8% (w/w) ointment daily for 21 days, healthy subjects), the “Serious Adverse Events (SAEs) or deaths” value is recorded as “No Serious Adverse Events (SAEs) or deaths were reported”. In data set [1] (human, in vivo), the “cumulative irritation scores versus placebo ointments and negative control (0.9% saline)” value was “No difference was observed”; the “electrocardiography: pulse rate, quiescent resting state, QTc intervals” value is reported as “did not demonstrate clinically significant changes”; the “severity of Adverse Events (AEs)” value was “mild or moderate in severity”; the “vital signs, physical examinations, laboratory assessments” value is “no clinically significant changes from baseline”. Further, in data set [1] (human, in vivo, 21 days), the “skin irritation score, maximum” value is recorded as no more than 3. In addition, in data set [2], the IC50 is 3 nM. Further, the concentrations in plasma in data set [3] (below LLOQ in most samples (489 out of 546=~90%)) was less than 0.1 ng/mL. Besides, the concentration at 22 day in data set [3] (human, plasma, Day 22, read-out: highest level observed in plasma in one subject during the dosing period) was found to be 0.994 ng/mL. Besides, in data set [4] (50 mg of 8% (w/v) topical, n=16, vehicle 134.3±13.31), the “total number of itching bouts” value stood at 89.00±10.51 itching bouts. In data set [4] (50 mg/Kg oral gavage, n=8, vehicle 42.88±6.667), the “total number of itching bouts” value came to 17.25±6.310 itching bouts. Also, the “reversal of pain responses, percent increase from baseline” value in data set [5] is reported as “reversed pain responses”. Also, the “maximal effect, reversal of pain response” value in data set [6] (oral dosing, 200 mg/Kg, compared with the other enantiomer) is reported as “greater maximal effect”. In data set [6] (setting [8]), the “% Increase From Base Line, 1% topical” value was found to be 0.62% and the “% Increase From Base Line, 8% topical” value was determined as 45.06%. Moreover, in data set [6] (setting [9]), the “% Increase From Base Line, 1% topical” value was “did not demonstrate an observable increase” and the “% Increase From Base Line, 8% topical” value amounted to 45.1%. Moreover, the “% Increase From Base Line, 2% topical” value in data set [6] (von Frey mechanical paw withdrawal threshold, 2% (w/v) topical) was found to be 16.71%. The “% Increase From Base Line, 4% topical” value in data set [6] (von Frey mechanical paw withdrawal threshold, 4% (w/v) topical) is listed as 28.79%. The “inhibition potency against hNav1.7 compared to the (R)-enantiomer” value in data set [7] is recorded as greater than 1000 fold.

The values are drawn from US9480677B2, “Enantiomers of spiro-oxindole compounds and their uses as therapeutic agents” (Xenon Pharmaceuticals Inc., priority 2009, dated 2016).
